Test results taken from patent US7049331B2, “1,2,4-thiadiazole derivatives as melanocortin receptor modulators” (Ortho-McNeil Pharmaceutical, Inc., priority 2001, dated 2006).

Tests used:
[1] = biological target: T1, melanocortin MC-4 receptor (Homo sapiens, UniProt P32245); experiment: Melanocortin MC-4 Receptor Binding Assay (SPA)
T1 construct: purchased Receptor Biology Inc
Experimental: Melanocortin MC-4 Receptor Binding Assay Melanocortin [MC-4]-membrane [purchased from Receptor Biology Inc] was coupled to wheat germ agglutinin coated polyvinyl toluene-Scintillation Proximity Assay beads [purchased from Amersham Pharmacia Inc.] for 30 min at 25° C. Into each well of a 96-well Opti plate [purchased from Packard, Calif.], 2.5 μg of membrane and 0.25 mg of beads were mixed in a volume of 100 μL media. […] Test compounds (1.5 μL) at 1 mM in 30% DMSO-50 mM HEPES, pH 7.4 buffer was added to separate wells on the plate. Radioactive ligand ^125I-NDP-melanocyte stimulating hormone [NEN, 2000Ci/mmol] was added to each well (48.5 μL per well, 40 pM final concentration). The plate was then sealed and let stand for 16 hr at 25° C. NDP-Melanocyte stimulating hormone peptide and α-melanocyte stimulating hormone peptide [purchased from Palomar Research Inc, 1 μM] were used as reference inhibitor compounds to define non-specific binding (N). Total binding (T) was defined using 30% DMSO-50 mM HEPES, pH 7.4 buffer. Bound radioactivity for each well (Y), measured at counts per minute (cpm) was measured in a TopCount [Packard, Calif.]. Percent inhibition was calculated as: […] The procedures described above for the melanocortin MC-4 receptor were repeated for the melanocortin MC-3 receptor. Following the procedures described, representative compounds of the present invention were tested for binding in the MC-4 and/or MC-3 assay, as listed in Table 4.

[2] = test system: Cortical Cells; experiment: Neurite Cell Outgrowth Assay, cortical cells; assay type: cell-based; conditions: Rattus norvegicus; 50 nM; percent change over the vehicle response; NA = no change/not active
Text: (§1) Dissociated hippocampal and cortical cell cultures were established from embryonic day 18 rat fetuses as described by Mattson, M. P., Barger, S. W., Begley, J, and Mark, R. J., Methods Cell Biol., 1994, 46:[…]. Briefly, fetuses were removed via cesarean section from pregnant moms (Sprague-Dawley) and anesthetized with halothane according to the AVMA Panel on Euthanasia. Pups were decapitated and the brains were removed and placed in HEPES-buffered Hank's Balanced Salt solution (HBSS; Gibco). The hippocampi and cortices were dissected out and pooled according to tissue-type. Tissue was trypsinized for 15 min (1 mg/ml trypsin-HBSS; Worthington), rinsed with fresh HBSS, incubated in trypsin inhibitor (1 mg/ml; Sigma) for 5 min, rinsed again with fresh HBSS and then triturated in 1 ml fresh HBSS with a fire-polished glass pipette. Dissociated cells were seeded at 30,000 cells/well onto poly-D-lysine coated 96-well plates (Collaborative BioScience). Each well contained 100 μl of Eagle's Minimal Essential Media (MEM; Gibco) supplemented with 26 mM NaHCO3 (Sigma), 56 mM glucose (Sigma), 15 mM KCl (Sigma), 1 mM sodium pyruvate (Sigma), 1.1 mM L-glutamine (Sigma), 10% (v/v) heat-inactivated fetal bovine serum (Hyclone), and 0.001% gentamicin sulfate (Sigma) (pH 7.4). Cells were allowed to attach for 24 h in a humidified 37° C. 5% CO2 incubator before experimental treatment. The culture media was aspirated and exchanged with fresh media every 3 days.
(§2) Twenty-four hours after plating, cultures were treated with vehicle (PBS+0.1% BSA), alpha-melanocyte stimulating hormone (α-MSH) or test compound (diluted in DPBS). Each treatment condition was run in quadruplicate. On the third day in culture, the media was aspirated off and replaced with fresh media and test compound. At one week in culture, the cells were fixed with 10% phosphate-buffered formalin for 15 min, then rinsed with DPBS (Sigma) and placed in blocking serum for 30 min (horse serum; 1:50 dilution in DPBS; Vector Labs). The cultures were rinsed again with DPBS and then incubated in primary antibody for 2 hr (microtubule-associated protein-2 (MAP-2) is a selective marker for dendritic processes; anti-mouse monoclonal (Chemicon); 1:1000 dilution of MAP-2 in antibody diluent (Zymed)). Negative control wells were incubated in antibody diluent alone. Background signal was determined by blank wells (cell-free) incubated with or without antibody. Cultures were rinsed again with DPBS and then placed in fluorescein for 1 hr (FITC; anti-mouse IgG; rat adsorbed; 1:50 dilution in DPBS; Vector Labs). Cultures were rinsed a final time with DPBS and the plates were then read on a Cytofluor 4000 fluorescence plate reader. Neurite outgrowth was expressed as percent change from control (vehicle).
(§3) The data are expressed as percent change over the vehicle response. All compounds were screened at 50 nM. The abbreviation NA indicates no change/not active; the abbreviation ND indicates a compound not tested/response not determined.

[3] = test system: Hippocampal Cells; experiment: Neurite Cell Outgrowth Assay, hippocampal cells; assay type: cell-based; conditions: Rattus norvegicus; 50 nM; percent change over the vehicle response; NA = no change/not active
Text: as §1, §2, §3

T1 sequence (P32245 whole entry): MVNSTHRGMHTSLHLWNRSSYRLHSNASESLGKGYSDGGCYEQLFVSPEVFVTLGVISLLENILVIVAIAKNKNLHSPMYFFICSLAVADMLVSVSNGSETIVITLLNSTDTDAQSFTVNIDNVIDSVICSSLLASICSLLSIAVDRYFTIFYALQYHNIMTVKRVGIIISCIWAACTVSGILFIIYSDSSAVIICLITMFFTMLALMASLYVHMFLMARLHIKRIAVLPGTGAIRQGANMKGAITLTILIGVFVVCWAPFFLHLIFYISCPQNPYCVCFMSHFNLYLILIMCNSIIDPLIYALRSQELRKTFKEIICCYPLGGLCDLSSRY

## c1ccc(Nc2nc(-c3ccccc3)[n+](-c3ccccc3)s2)cc1 [Compound 22]
[1]
  IC50: 124 nM
[2]
  activation at 0.05 µM: 30%

## COc1ccc(Nc2nc(-c3ccccc3)[n+](-c3ccccc3)s2)cc1 [Compound 23]
[1]
  IC50: 124 nM
[3]
  activation at 0.05 µM: 10%
[2]
  activation at 0.05 µM: 20%

## COc1ccccc1Nc1nc(-c2ccccc2)[n+](-c2ccccc2)s1 [Compound 24]
[1]
  IC50: 76 nM
[3]
  activation at 0.05 µM: 10%
[2]
  activation at 0.05 µM: 16%

## Cc1ccc(Nc2nc(-c3ccccc3)[n+](-c3ccccc3)s2)cc1 [Compound 25]
[1]
  IC50: 57 nM
[2]
  activation at 0.05 µM: 23%

## COc1ccccc1-[n+]1sc(Nc2ccccc2)nc1-c1ccccc1 [Compound 28]
[1]
  IC50: 68 nM
[2]
  activation at 0.05 µM: 25%

## COc1ccccc1Nc1nc(-c2ccccc2)[n+](-c2ccccc2OC)s1 [Compound 30]
[1]
  IC50: 103 nM

## COc1ccccc1-[n+]1sc(Nc2ccc(Cl)cc2)nc1-c1ccccc1 [Compound 33]
[1]
  IC50: 91 nM
[2]
  activation at 0.05 µM: 21%

## COc1ccc(-[n+]2sc(Nc3ccccc3)nc2-c2ccccc2)cc1 [Compound 35]
[1]
  IC50: 100 nM
[2]
  activation at 0.05 µM: 28%

## COc1ccc(Nc2nc(-c3ccccc3)[n+](-c3ccc(OC)cc3)s2)cc1 [Compound 36]
[1]
  IC50: 79 nM
[2]
  activation at 0.05 µM: 16%

## COc1ccc(-[n+]2sc(Nc3ccccc3OC)nc2-c2ccccc2)cc1 [Compound 37]
[1]
  IC50: 72 nM
[2]
  activation at 0.05 µM: 26%

## COc1ccc(-[n+]2sc(Nc3ccc(C)cc3)nc2-c2ccccc2)cc1 [Compound 38]
[1]
  IC50: 159 nM

## COc1ccc(-[n+]2sc(Nc3ccccc3C)nc2-c2ccccc2)cc1 [Compound 39]
[1]
  IC50: 146 nM

## COc1ccc(-[n+]2sc(Nc3ccc(Cl)cc3)nc2-c2ccccc2)cc1 [Compound 40]
[1]
  IC50: 133 nM
[3]
  activation at 0.05 µM: 26%

## COc1ccc(-[n+]2sc(Nc3ccccc3Cl)nc2-c2ccccc2)cc1 [Compound 41]
[1]
  IC50: 483 nM
[3]
  activation at 0.05 µM: 36%
[2]
  activation at 0.05 µM: 5%

## Clc1ccccc1-[n+]1sc(Nc2ccccc2)nc1-c1ccccc1 [Compound 42]
[1]
  IC50: 482 nM
[3]
  activation at 0.05 µM: 26%

## COc1ccc(Nc2nc(-c3ccccc3)[n+](-c3ccccc3Cl)s2)cc1 [Compound 43]
[1]
  IC50: 237 nM
[3]
  activation at 0.05 µM: 30%
[2]
  activation at 0.05 µM: 37%

## COc1ccccc1Nc1nc(-c2ccccc2)[n+](-c2ccccc2Cl)s1 [Compound 44]
[1]
  IC50: 89 nM
[3]
  activation at 0.05 µM: 43%
[2]
  activation at 0.05 µM: 19%

## Cc1ccc(Nc2nc(-c3ccccc3)[n+](-c3ccccc3Cl)s2)cc1 [Compound 45]
[1]
  IC50: 246 nM
[3]
  activation at 0.05 µM: 46%
[2]
  activation at 0.05 µM: 25%

## Cc1ccccc1Nc1nc(-c2ccccc2)[n+](-c2ccccc2Cl)s1 [Compound 46]
[1]
  IC50: 368 nM
[3]
  activation at 0.05 µM: 40%
[2]
  activation at 0.05 µM: 19%

## Clc1ccc(Nc2nc(-c3ccccc3)[n+](-c3ccccc3Cl)s2)cc1 [Compound 47]
[1]
  IC50: 874 nM
[3]
  activation at 0.05 µM: 20%
[2]
  activation at 0.05 µM: 13%

## Clc1ccccc1Nc1nc(-c2ccccc2)[n+](-c2ccccc2Cl)s1 [Compound 48]
[1]
  IC50: 444 nM
[2]
  activation at 0.05 µM: 19%

## COc1ccc(CNc2nc(-c3ccccc3)[n+](-c3ccccc3)s2)cc1 [Compound 51]
[1]
  IC50: 1000 nM
[3]
  activation at 0.05 µM: 74%
[2]
  activation at 0.05 µM: 28%

## COc1ccccc1CNc1nc(-c2ccccc2)[n+](-c2ccccc2)s1 [Compound 52]
[1]
  IC50: 1000 nM
[3]
  activation at 0.05 µM: 65%

## Cc1ccc(CNc2nc(-c3ccccc3)[n+](-c3ccccc3)s2)cc1 [Compound 53]
[1]
  IC50: 1000 nM
[3]
  activation at 0.05 µM: 67%

## Cc1ccccc1CNc1nc(-c2ccccc2)[n+](-c2ccccc2)s1 [Compound 54]
[1]
  IC50: 800 nM
[3]
  activation at 0.05 µM: 45%

## Clc1ccc(CNc2nc(-c3ccccc3)[n+](-c3ccccc3)s2)cc1 [Compound 55]
[1]
  IC50: 800 nM
[3]
  activation at 0.05 µM: 19%

## Clc1ccccc1CNc1nc(-c2ccccc2)[n+](-c2ccccc2)s1 [Compound 56]
[1]
  IC50: 3000 nM
[3]
  activation at 0.05 µM: 33%

## COc1ccc(-c2nc(Nc3ccccc3)s[n+]2-c2ccc(OC)cc2)cc1 [Compound 57]
[1]
  IC50 MC-4 (nM) (SPA): inactive
[3]
  activation at 0.05 µM: 9%

## COc1ccc(Nc2nc(-c3ccc(OC)cc3)[n+](-c3ccc(OC)cc3)s2)cc1 [Compound 58]
[1]
  IC50 MC-4 (nM) (SPA): inactive
[3]
  activation at 0.05 µM: 72%
[2]
  activation at 0.05 µM: 10%

## COc1ccc(-c2nc(Nc3ccccc3OC)s[n+]2-c2ccc(OC)cc2)cc1 [Compound 59]
[1]
  IC50 MC-4 (nM) (SPA): inactive
[3]
  activation at 0.05 µM: 61%
[2]
  activation at 0.05 µM: 21%

## COc1ccc(-c2nc(Nc3ccc(C)cc3)s[n+]2-c2ccc(OC)cc2)cc1 [Compound 60]
[1]
  IC50 MC-4 (nM) (SPA): inactive
[3]
  activation at 0.05 µM: 66%
[2]
  activation at 0.05 µM: 14%

## COc1ccc(-c2nc(Nc3ccccc3C)s[n+]2-c2ccc(OC)cc2)cc1 [Compound 61]
[1]
  IC50 MC-4 (nM) (SPA): inactive
[3]
  activation at 0.05 µM: 66%
[2]
  activation at 0.05 µM: 17%

## COc1ccc(-c2nc(Nc3ccc(Cl)cc3)s[n+]2-c2ccc(OC)cc2)cc1 [Compound 62]
[1]
  IC50 MC-4 (nM) (SPA): inactive
[3]
  activation at 0.05 µM: 13%
[2]
  activation at 0.05 µM: 13%

## COc1ccc(-c2nc(Nc3ccccc3Cl)s[n+]2-c2ccc(OC)cc2)cc1 [Compound 63]
[1]
  IC50: 1000 nM
[3]
  activation at 0.05 µM: 20%
[2]
  activation at 0.05 µM: 17%

## COc1ccc(-c2nc(Nc3cccnc3)s[n+]2-c2ccc(OC)cc2)cc1 [Compound 64]
[1]
  IC50: 1200 nM
[3]
  activation at 0.05 µM: 22%
[2]
  activation at 0.05 µM: 12%

## COc1ccccc1-[n+]1sc(Nc2ccccc2)nc1-c1ccc(C)cc1 [Compound 65]
[1]
  IC50: 114 nM

## COc1ccc(Nc2nc(-c3ccc(C)cc3)[n+](-c3ccccc3OC)s2)cc1 [Compound 66]
[1]
  IC50: 120 nM

## COc1ccccc1-[n+]1sc(Nc2ccc(C)cc2)nc1-c1ccc(C)cc1 [Compound 68]
[1]
  IC50: 110 nM

## COc1ccccc1-[n+]1sc(Nc2ccccc2C)nc1-c1ccc(C)cc1 [Compound 69]
[1]
  IC50: 139 nM

## COc1ccccc1-[n+]1sc(Nc2ccccc2Cl)nc1-c1ccc(C)cc1 [Compound 71]
[1]
  IC50: 234 nM

## COc1ccccc1-[n+]1sc(Nc2cccnc2)nc1-c1ccc(C)cc1 [Compound 72]
[1]
  IC50: 155 nM

## COc1ccccc1-[n+]1sc(Nc2cccnc2)nc1-c1ccccc1 [Compound 73]
[1]
  IC50: 725 nM

## COc1ccc(Nc2nc(-c3ccccc3OC)[n+](-c3ccccc3OC)s2)cc1 [Compound 75]
[1]
  IC50: 103 nM

## COc1ccccc1-c1nc(Nc2ccc(C)cc2)s[n+]1-c1ccccc1OC [Compound 77]
[1]
  IC50: 4.4 nM

## COc1ccccc1-c1nc(Nc2ccccc2C)s[n+]1-c1ccccc1OC [Compound 78]
[1]
  IC50: 99 nM

## COc1ccccc1-c1nc(Nc2ccc(Cl)cc2)s[n+]1-c1ccccc1OC [Compound 79]
[1]
  IC50: 216 nM

## COc1ccccc1-c1nc(Nc2cccnc2)s[n+]1-c1ccccc1OC [Compound 81]
[1]
  IC50: 672 nM
